Structures can show the parent of a compound that is named as a salt. Where two headings read alike, the source gives them in different places.
Tests used:
OC43 = assay: Drug screening: OC43 nucleoprotein staining in infected A549-mRuby cells; assay type: cell-based, human beta coronavirus OC43; details: for activity at 10 µM: Betacoronavirus 1, OC43, 96 h
Procedure: A549-mRuby cells were seeded (3,000 cells per well) in nine 384-well plates using Multidrop combi. Cells were seeded in a final volume of 30 μl with DMEM+10% BCS. The following day, 20 μl of OC43 were added (MOI 0.3) and incubated at 33° C., 5% CO2 for 1 hour. 50 nl from the Selleck FDA-approved drug library (cat #L1300, Selleck) were added (1:1,000 dilution). Two columns (32 wells) were left uninfected and two columns were treated with DMSO and virus (no drug control). Cells were imaged using the IncuCyte S3 to measure cell numbers at day 0. Cells were incubated for 4 days at 33° C., 5% CO2 and were stained for OC43 nucleoprotein. All the following steps were performed at room temperature. Cells were fixed in 50 μl 4% PFA/PBS for 15 min, blocked with 50 μl 10% BSA+0.5% Triton X-100 in PBS for 30 minutes, stained with 50 μl anti-OC43 (cat #MAB9013, Milipore) diluted 1:2,000 in 2% BSA+0.1% Triton X-100 in PBS for 1 hour, washed with 50 μl PBS three times, stained with anti-mouse-AlexaFluor488 diluted 1:1,000 in 2% BSA+0.1% Triton X-100 in PBS for 1 hour, washed with 50 μl PBS three times and imaged on the IncuCyte S3 (day 4). The screen was performed twice.
(§1) The following parameters were extracted from the images: number of cells at day 0, number of cells at day 4 and total OC43 staining intensity at day 4. For analysis, OC43 staining intensity was normalized to the number of cells in the well and further normalized to the mean of the no drug controls, which was set to 100. […] For each plate, a drug was considered as a putative hit if it reduced OC43 staining by over 3 standard deviations from the mean of the no drug controls. Drugs were considered hits if they were not toxic and reduced OC43 staining by over 3 standard deviations in both repeats.
(§2) A library of 1,900 clinically used drugs was screened, the drugs either approved for human use or having extensive safety data in humans (Phase 2 or 3 clinical trials), for their ability to inhibit OC43 infection of the human lung epithelial cell line A549 (expressing an H2B-mRuby nuclear reporter). One day after plating, cells were infected at an MOI of 0.3, incubated at 33° C. for 1 hour and drugs were added to a final concentration of 10 μM. Cells were then incubated at 33° C. for 4 days, fixed and stained for the presence of the viral nucleoprotein. The cells were imaged at day 0 (following drug addition) and day 4 (after staining) to determine the drugs effect on cell growth and OC43 infection.

A549-mRuby cells = assay: Drug screening: effect on cell growth (cell number day 4 / day 0); details: 10 μM drug; for Growth_1: number of cells at day 4 divided by number of cells at day 0 / toxic_1: repeat #1; for Growth_2: number of cells at day 4 divided by number of cells at day 0 / toxic_2: repeat #2
Procedure: A549-mRuby cells were seeded (3,000 cells per well) in nine 384-well plates using Multidrop combi. Cells were seeded in a final volume of 30 μl with DMEM+10% BCS. The following day, 20 μl of OC43 were added (MOI 0.3) and incubated at 33° C., 5% CO2 for 1 hour. 50 nl from the Selleck FDA-approved drug library (cat #L1300, Selleck) were added (1:1,000 dilution). Two columns (32 wells) were left uninfected and two columns were treated with DMSO and virus (no drug control). Cells were imaged using the IncuCyte S3 to measure cell numbers at day 0. Cells were incubated for 4 days at 33° C., 5% CO2 and were stained for OC43 nucleoprotein. All the following steps were performed at room temperature. […] The screen was performed twice.
as §1, §2

[1] = 10 μM drug, MOI 0.3, 4 days, OC43 staining normalized to no-drug controls, mean of the two screen repeats, read-out: OC43_mean
[2] = 10 μM drug, MOI 0.3, 4 days, normalized to no-drug controls in the same plate, repeat #1, read-out: OC43_1: % staining of OC43 in screen repeat #1
[3] = 10 μM drug, MOI 0.3, 4 days, normalized to no-drug controls in the same plate, repeat #2, read-out: OC43_2: % staining of OC43 in screen repeat #2

SMILES | hit_1 (OC43; 10 μM drug, repeat #1) | hit_2 (OC43; 10 μM drug, repeat #2) | activity at 10 µM (OC43; [1]) [%] | activity at 10 µM (OC43; [2]) [%] | activity at 10 µM (OC43; [3]) [%] | Growth_1: number of cells at day 4 divided by number of cells at day 0 (A549-mRuby cells) | toxic_1 (A549-mRuby cells) | Growth_2: number of cells at day 4 divided by number of cells at day 0 (A549-mRuby cells) | toxic_2 (A549-mRuby cells) | activity at 10 µM (OC43; read-out: OC43_mean) [%] | activity at 10 µM (OC43; read-out: OC43_1: % staining of OC43 in screen repeat #1) [%] | activity at 10 µM (OC43; read-out: OC43_2: % staining of OC43 in screen repeat #2) [%]
COc1ccccc1OCCNCC(O)COc1cccc2[nH]c3ccccc3c12 (stereo not shown) [Carvedilol] | 1 | 1 | 24.6 | 20.1 | 29.1 | 4.5 | 0 | 3.1 | 0 |  |  | 
CCN(CC)CCCC(C)Nc1ccnc2cc(Cl)ccc12 (stereo not shown) [Chloroquine Phosphate] | 1 | 1 |  | 11.3 | 13.1 |  | 0 |  | 0 | 12.2 |  | 
CCCCOc1cc(C(=O)NCCN(CC)CC)c2ccccc2n1 [Cinchocaine] | 1 | 1 | 41.6 | 18.9 | 64.3 | 4.3 | 0 | 4.2 | 0 |  |  | 
COc1cc(N)c(Cl)cc1C(=O)NC1CCN(CCCOc2ccc(F)cc2)CC1OC (stereo not shown) [Cisapride] | 1 | 1 | 25.3 | 28.5 | 22.1 | 4.1 | 0 | 4.5 | 0 |  |  | 
CN(C)CCCC1(c2ccc(F)cc2)OCc2cc(C#N)ccc21 (stereo not shown) [Citalopram HBr] | 1 | 1 |  | 20.4 | 44.4 | 5.1 | 0 | 5.1 | 0 | 32.4 |  | 
CN(C)CCCN1c2ccccc2CCc2ccc(Cl)cc21.O [Clomipramine HCl] | 1 | 1 |  | 13.9 | 21.6 | 2.6 | 0 | 3.8 | 0 | 17.7 |  | 
CN1CCN(C2=Nc3cc(Cl)ccc3Nc3ccccc32)CC1 [Clozapine] | 1 | 1 | 31.3 | 15.8 | 46.9 | 4.6 | 0 | 4.3 | 0 |  |  | 
CC(C)c1nc(CN(C)C(=O)N[C@@H](CCN2CCOCC2)C(=O)N[C@H](CC[C@H](Cc2ccccc2)NC(=O)OCc2cncs2)Cc2ccccc2)cs1 [Cobicistat (GS-9350), Cobicistat] | 1 | 1 | 21.8 | 23 | 20.7 | 4.9 | 0 | 5.3 | 0 |  |  | 
CN(C)CCC=C1c2ccccc2C=Cc2ccccc21 [Cyclobenzaprine HCl] | 1 | 1 | 46.5 | 45.2 | 47.7 | 3.3 | 0 | 2.1 | 0 |  |  | 
CN1CCC(=C2c3ccccc3C=Cc3ccccc32)CC1 [Cyproheptadine HCl] | 1 | 1 | 27 | 22.8 | 31.2 | 3.8 | 0 | 3.0 | 0 |  |  | 
CC(C)(C)c1nc(-c2cccc(NS(=O)(=O)c3c(F)cccc3F)c2F)c(-c2ccnc(N)n2)s1 [Dabrafenib (GSK2118436), Dabrafenib] | 1 | 1 | 41.6 | 36.3 | 47 | 3.9 | 0 | 5.5 | 0 |  |  | 
CN[C@H]1C(=O)N[C@@H]2Cc3ccc(cc3)Oc3cc4cc(c3O[C@@H]3O[C@H](C(=O)O)[C@@H](O)[C@H](O)[C@H]3NC(=O)CCCCCCCCC(C)C)Oc3ccc(cc3Cl)[C@@H](O)[C@@H]3NC(=O)[C@H](NC(=O)[C@@H]4NC(=O)[C@@H](NC2=O)c2cc(cc(O)c2Cl)Oc2cc1ccc2O)c1ccc(O)c(c1)-c1c(O[C@H]2O[C@H](CO)[C@@H](O)[C@H](O)[C@@H]2O)cc(O)cc1[C@@H](C(=O)NCCCN(C)C)NC3=O [Dalbavancin] | 1 | 1 |  |  |  | 5.8 | 0 | 6.2 | 0 | 32.5 | 25.7 | 39.2
NC(=O)C(c1ccccc1)(c1ccccc1)[C@@H]1CCN(CCc2ccc3c(c2)CCO3)C1 [Darifenacin HBr] | 1 | 1 | 24.7 | 14.6 | 34.8 | 5.2 | 0 | 3.4 | 0 |  |  | 
